Laboratory results taken from patent US20220280507A1, “USES OF 5-METHYLTETRAHYDROFOLATE AND ITS COMPOSITION” (Lianyungang Jinkang Hexin Pharmaceutical Co., Ltd., priority 2019, published 2022).

Key:
[1] = Alcoholic fatty liver model, body weight during administration period; format: in vivo, SD rats; conditions: liquor model
Experimental: (§1) According to their weight, they were randomly divided into vehicle control group (purified water, ig), model control group (liquor, 10 ml·Kg−1), positive control group (bicyclol, 50 mg·Kg−1, ig), folic acid calcium salt high-dose group (4 mg·Kg−1), folic acid calcium salt medium-dose group (2 mg·Kg−1), folic acid calcium salt low-dose group (1 mg·Kg−1), in half female and half male, and 16 rats in each group. Purified water was used as a negative control, and bicyclol (place of origin: Beijing Xiehe Pharmaceutical Factory, specification: 25 mg/tablet, batch number: H20040467) was used as a positive control drug. Route of administration: all were administered by oral gavage. Dosage of administration: 1 mg·Kg−1, 2 mg·Kg−1, and 4 mg·Kg−1. Frequency of administration: once a day for 60 consecutive days.
(§2) Method of administration: administration started at prescribed doses on the day of modeling for 60 consecutive days and ended at the 60th day. At the same time, rats in each group were weighed every other week during administration period to monitor their body weight changes. On the 61st day, rats were dissected and serum was collected for determination of triglyceride (TG), total cholesterol (TC), malondialdehyde (MDA), superoxide dismutase (SOD) and liver histopathologic examination. The brain tissue of rats was taken out, and hippocampus tissue was separated on ice plate, prepared to homogenate with a mass fraction of 10% with purified water, then the homogenate was centrifuged to obtain supernatant. ELISA was used to detect the levels of inflammatory factors TNF-α and IL-1β in hippocampus tissue with continuous spectrum scanning microplate reader.

[2] = test system: alcoholic liver damage and fatty liver; assay: Alcoholic fatty liver model, serum TG, TC, SOD, MDA and liver histopathology; format: in vivo, SD rats; conditions: for MDA / SOD: day 61, liquor model; for MDA / SOD / TC / TG: n=16; for Pathological examination of liver: liquor model; for TC / TG: serum day 61, liquor model
Experimental: as §1, with “96 SPF-grade SD rats were chosen in half female and half male with an average weight of 176-220 g at the beginning of the experiment. According” for “According”, “days. Erguotou (batch number: 201603092, specification: 2L, place of origin: Beijing Shunxin Agriculture Co., Ltd.) model establishing method: gavage with diluted 56-degree Erguotou twice a day for 60 consecutive days.” for “days.”
as §2

IL-1β = assay: Alcoholic fatty liver model, IL-1β in hippocampus tissue (ELISA); format: in vivo, SD rats; conditions: liquor model, n=16
Experimental: as §1, §2

IL-6 = assay: LPS-induced inflammatory response in astrocytes, IL-6 release (ELISA); format: cell-based, Kunming mice; conditions: culture supernatant, LPS 1 μg·ml-1 + substance 10 μg·ml-1, 24 h, n=6
Text: (§3) Experiment 9 Inhibition of 5-Methyltetrahydrofolate and Curcumin on LPS-Induced Inflammatory Response in Astrocytes
(§4) The cerebral cortex of Kunming mice at 1˜2 d was taken out under aseptic conditions, washed 3 times with cold PBS after removing residual meninges and blood vessels, prepared into single cell suspension by blowing, centrifuged, the supernatant was discarded, and the precipitant was resuspended in AST basic medium (high-sugar DMEM containing 10% FBS). The suspension was inoculated into a culture flask coated with poly-L-lysine (0.1 mg/ml), and cultured in a CO2 incubator. After 24 h, tissue debris and non-adherent cells were removed by replacing the medium. Afterwards, the medium was replaced every 3 days until the cells reached 80% confluence, then the flask was placed on a constant temperature rotary shaker, where the suspension was centrifuged at 180 r/min, 37° C. for 18 h to remove oligodendrocytes and microglia from the upper layer. Then trypsin digestion was used for subculture. […]
(§5) LPS (1 μg·ml-1), LPS (1 μg·ml-1)+curcumin (10 μg·ml-1), LPS (1 μg·ml-1)+5-MTHF-Ca (10 μg·ml-1); experimental group: LPS (1 μg·ml-1)+curcumin (5 μg·ml-1)+5-MTHF-Ca (5 μg·ml-1). After 24 h, the culture supernatant was collected, and the cytokines IL-6, IL-1β and TNF-α were detected by ELISA.

TNF-α = assay: LPS-induced inflammatory response in astrocytes, TNF-α release (ELISA); format: cell-based, Kunming mice; conditions: culture supernatant, LPS 1 μg·ml-1 + substance 10 μg·ml-1, 24 h, n=6
Text: as §3, §4, §5

5-methyltetrahydrofolate calcium
Body weight ([1]; 1 mg·kg−1·d−1 ig, Week 0, n=16): 195.64 g
Body weight ([1]; 1 mg·kg−1·d−1 ig, Week 1, n=16): 215.16 g
Body weight ([1]; 1 mg·kg−1·d−1 ig, Week 2, n=16): 282.30 g
Body weight ([1]; 1 mg·kg−1·d−1 ig, Week 3, n=16): 299.34 g
Body weight ([1]; 1 mg·kg−1·d−1 ig, Week 4, n=16): 312.99 g
Body weight ([1]; 1 mg·kg−1·d−1 ig, Week 5, n=16): 317.48 g
Body weight ([1]; 1 mg·kg−1·d−1 ig, Week 6, n=16): 334.47 g
Body weight ([1]; 1 mg·kg−1·d−1 ig, Week 7, n=16): 355.89 g
Body weight ([1]; 1 mg·kg−1·d−1 ig, Week 8, n=16): 375.85 g
Body weight ([1]; 2 mg·kg−1·d−1 ig, Week 0, n=16): 190.85 g
Body weight ([1]; 2 mg·kg−1·d−1 ig, Week 1, n=16): 219.44 g
Body weight ([1]; 2 mg·kg−1·d−1 ig, Week 2, n=16): 274.69 g
Body weight ([1]; 2 mg·kg−1·d−1 ig, Week 3, n=16): 293.12 g
Body weight ([1]; 2 mg·kg−1·d−1 ig, Week 4, n=16): 321.78 g
Body weight ([1]; 2 mg·kg−1·d−1 ig, Week 5, n=16): 328.10 g
Body weight ([1]; 2 mg·kg−1·d−1 ig, Week 6, n=16): 345.05 g
Body weight ([1]; 2 mg·kg−1·d−1 ig, Week 7, n=16): 352.90 g
Body weight ([1]; 2 mg·kg−1·d−1 ig, Week 8, n=16): 383.69 g
Body weight ([1]; 4 mg·kg−1·d−1 ig, Week 0, n=16): 196.33 g
Body weight ([1]; 4 mg·kg−1·d−1 ig, Week 1, n=16): 218.24 g
Body weight ([1]; 4 mg·kg−1·d−1 ig, Week 2, n=16): 285.54 g
Body weight ([1]; 4 mg·kg−1·d−1 ig, Week 3, n=16): 296.05 g
Body weight ([1]; 4 mg·kg−1·d−1 ig, Week 4, n=16): 307.43 g
Body weight ([1]; 4 mg·kg−1·d−1 ig, Week 5, n=16): 321.49 g
Body weight ([1]; 4 mg·kg−1·d−1 ig, Week 6, n=16): 349.47 g
Body weight ([1]; 4 mg·kg−1·d−1 ig, Week 7, n=16): 372.49 g
Body weight ([1]; 4 mg·kg−1·d−1 ig, Week 8, n=16): 392.02 g
MDA ([2]; 1 mg·kg−1·d−1 ig 60 d): 45.20 ± 8.17 nmol/mgprot
SOD ([2]; 1 mg·kg−1·d−1 ig 60 d): 253.20 ± 24.66 U/mgprot
MDA ([2]; 2 mg·kg−1·d−1 ig 60 d): 42.17 ± 8.65 nmol/mgprot
SOD ([2]; 2 mg·kg−1·d−1 ig 60 d): 257.41 ± 31.28 U/mgprot
MDA ([2]; 4 mg·kg−1·d−1 ig 60 d): 47.96 ± 10.28 nmol/mgprot
SOD ([2]; 4 mg·kg−1·d−1 ig 60 d): 248.87 ± 34.64 U/mgprot
Pathological examination of liver ([2]; high-dose group 4 mg·Kg−1 ig 60 d): no hyperplasia of interstitial connective tissue and fatty degeneration of hepatocytes
Pathological examination of liver ([2]; low-dose group 1 mg·Kg−1 ig 60 d): a few fatty vacuoles in hepatocytes, and no obvious hyperplasia of interstitial connective tissue
Pathological examination of liver ([2]; medium-dose group 2 mg·Kg−1 ig 60 d): no hyperplasia of interstitial connective tissue and fatty degeneration of hepatocytes
TC ([2]; 1 mg·kg−1·d−1 ig 60 d): 1.42 ± 0.36 mmol/L
TG ([2]; 1 mg·kg−1·d−1 ig 60 d): 1.08 ± 0.34 mmol/L
TC ([2]; 2 mg·kg−1·d−1 ig 60 d): 1.50 ± 0.37 mmol/L
TG ([2]; 2 mg·kg−1·d−1 ig 60 d): 1.03 ± 0.50 mmol/L
TC ([2]; 4 mg·kg−1·d−1 ig 60 d): 1.47 ± 0.44 mmol/L
TG ([2]; 4 mg·kg−1·d−1 ig 60 d): 1.04 ± 0.43 mmol/L
IL-1β in hippocampus tissue (IL-1β; 1 mg·kg−1·d−1 ig 60 d): 63.05 ± 5.31 μg · g^−1 prot
IL-1β in hippocampus tissue (IL-1β; 2 mg·kg−1·d−1 ig 60 d): 63.24 ± 13.44 μg · g^−1 prot
IL-1β in hippocampus tissue (IL-1β; 4 mg·kg−1·d−1 ig 60 d): 55.21 ± 3.59 μg · g^−1 prot
IL-6 (IL-6): 993.24 ± 52.05 pg/mL
TNF-α (TNF-α): 489.21 ± 10.71 pg/mL
